According to US7144887B2, “Substituted 1,2,3-triazolo[1,5-a]quinazolines for enhancing cognition” (Merck Sharp & Dohme Ltd., priority 1999, dated 2006):

Columns and labels:
[1] = in vivo; cited from earlier work

| SMILES | melting point | spatial learning in the Morris watermaze [1] |
| --- | --- | --- |
| Cc1cc(-c2nnn3c2nc(N2CCN(c4ccccn4)C(=O)C2)c2ccccc23)no1 | 266 °C (dec.) | – |
| Cc1cc(-c2nnn3c2nc(N2CCN(c4cccnc4)C(=O)C2)c2ccccc23)no1 | 247 °C (dec.) | – |
| Cc1cc(-c2nnn3c2nc(N2CCN(c4ccccc4)C(=O)C2)c2ccccc23)no1 | 263 °C (dec.) | – |
| COC(=O)c1cc2c(cn1)[nH]c1ccccc12 [β-CCM] | – | enhanced spatial learning |
